Laboratory results published in the NIST ThermoML archive (doi:10.1016/j.jct.2006.05.004).

Columns and labels:
[1] = xn = mol fraction of the nth substance listed; details: 298.15 K, 101 kPa, Liquid
[2] = excess molar enthalpy (molar enthalpy of mixing); xn = mol fraction of the nth substance listed; details: 298.15 K, 101 kPa, Liquid

BrCCCCCCBr [1,6-dibromohexane] + CCCC(=O)OC
Details	excess molar enthalpy [kcal/mol]	mass density [kg/m3]
[1], x2 = 0.0254	–	1587.59
[1], x2 = 0.0833	–	1555.83
[1], x2 = 0.1606	–	1512
[1], x2 = 0.2243	–	1474.58
[1], x2 = 0.291	–	1434.05
[1], x2 = 0.3545	–	1394.06
[1], x2 = 0.4193	–	1351.87
[1], x2 = 0.5445	–	1265.85
[1], x2 = 0.6016	–	1224.52
[1], x2 = 0.6573	–	1182.86
[1], x2 = 0.7029	–	1147.73
[1], x2 = 0.7563	–	1105.29
[1], x2 = 0.8125	–	1059.12
[1], x2 = 0.9056	–	978.87
[2], x2 = 0.0838	0.018	–
[2], x2 = 0.1878	0.0309	–
[2], x2 = 0.2949	0.0395	–
[2], x2 = 0.3961	0.0423	–
[2], x2 = 0.4591	0.0405	–
[2], x2 = 0.5094	0.0383	–
[2], x2 = 0.5864	0.0329	–
[2], x2 = 0.6566	0.0287	–
[2], x2 = 0.734	0.0232	–
[2], x2 = 0.8128	0.0172	–
[2], x2 = 0.8885	0.0108	–
[2], x2 = 0.9526	0.00392	–

BrCCBr [1,2-dibromoethane] + CCCC(=O)OC
Details	excess molar enthalpy [kcal/mol]	mass density [kg/m3]
[1], x2 = 0.0456	–	2090.91
[1], x2 = 0.0934	–	2013.52
[1], x2 = 0.138	–	1943.4
[1], x2 = 0.1885	–	1866.04
[1], x2 = 0.2437	–	1784.45
[1], x2 = 0.2925	–	1714.77
[1], x2 = 0.3454	–	1641.47
[1], x2 = 0.4047	–	1562.1
[1], x2 = 0.5193	–	1415.94
[1], x2 = 0.5812	–	1340.87
[1], x2 = 0.6461	–	1264.87
[1], x2 = 0.7118	–	1190.49
[1], x2 = 0.7767	–	1119.58
[1], x2 = 0.8458	–	1046.47
[1], x2 = 0.9209	–	970.06
[2], x2 = 0.0509	0.0049	–
[2], x2 = 0.1042	0.00772	–
[2], x2 = 0.1621	0.00858	–
[2], x2 = 0.2266	0.00748	–
[2], x2 = 0.2928	0.00418	–
[2], x2 = 0.3635	-0.00086	–
[2], x2 = 0.4243	-0.00672	–
[2], x2 = 0.4796	-0.0115	–
[2], x2 = 0.537	-0.0148	–
[2], x2 = 0.6008	-0.0165	–
[2], x2 = 0.6755	-0.0168	–
[2], x2 = 0.7537	-0.0152	–
[2], x2 = 0.8373	-0.0118	–
[2], x2 = 0.9188	-0.00707	–

BrCCCCBr [1,4-dibromobutane] + COC(C)=O
Details	excess molar enthalpy [kcal/mol]	mass density [kg/m3]
[1], x2 = 0.0837	–	1770.14
[1], x2 = 0.1689	–	1713.04
[1], x2 = 0.2373	–	1664.79
[1], x2 = 0.3235	–	1601.13
[1], x2 = 0.3783	–	1558.38
[1], x2 = 0.4433	–	1505.87
[1], x2 = 0.5073	–	1451.51
[1], x2 = 0.5682	–	1397.42
[1], x2 = 0.6216	–	1347.79
[1], x2 = 0.6771	–	1293.95
[1], x2 = 0.7431	–	1226.93
[1], x2 = 0.8273	–	1135.92
[1], x2 = 0.9151	–	1033.42
[1], x2 = 0.9603	–	977.5
[2], x2 = 0.0848	0.0432	–
[2], x2 = 0.1755	0.0741	–
[2], x2 = 0.2635	0.0955	–
[2], x2 = 0.3449	0.109	–
[2], x2 = 0.4161	0.116	–
[2], x2 = 0.4816	0.118	–
[2], x2 = 0.5389	0.115	–
[2], x2 = 0.5872	0.109	–
[2], x2 = 0.6316	0.103	–
[2], x2 = 0.6695	0.0954	–
[2], x2 = 0.7038	0.089	–
[2], x2 = 0.755	0.0763	–
[2], x2 = 0.8095	0.062	–
[2], x2 = 0.8632	0.046	–
[2], x2 = 0.9128	0.0316	–
[2], x2 = 0.9584	0.0149	–

BrCCCCCBr [1,5-dibromopentane] + CCCC(=O)OC
Details	excess molar enthalpy [kcal/mol]	mass density [kg/m3]
[1], x2 = 0.0754	–	1642.8
[1], x2 = 0.1463	–	1593.12
[1], x2 = 0.2087	–	1548.48
[1], x2 = 0.2699	–	1503.86
[1], x2 = 0.3456	–	1447.37
[1], x2 = 0.454	–	1363.99
[1], x2 = 0.573	–	1268.9
[1], x2 = 0.6279	–	1223.66
[1], x2 = 0.6902	–	1171.2
[1], x2 = 0.7398	–	1128.65
[1], x2 = 0.7971	–	1078.54
[1], x2 = 0.8961	–	989.47
[1], x2 = 0.9526	–	937.22
[2], x2 = 0.0788	0.015	–
[2], x2 = 0.1742	0.0254	–
[2], x2 = 0.2762	0.0325	–
[2], x2 = 0.374	0.0341	–
[2], x2 = 0.461	0.0309	–
[2], x2 = 0.5359	0.0249	–
[2], x2 = 0.5693	0.0214	–
[2], x2 = 0.6313	0.0152	–
[2], x2 = 0.7089	0.0093	–
[2], x2 = 0.7917	0.00514	–
[2], x2 = 0.8725	0.00258	–
[2], x2 = 0.946	0.00131	–

BrCCCBr [1,3-dibromopropane] + COC=O
Details	excess molar enthalpy [kcal/mol]	mass density [kg/m3]
[1], x2 = 0.168	–	1858.59
[1], x2 = 0.2514	–	1796.92
[1], x2 = 0.3294	–	1735.49
[1], x2 = 0.4017	–	1674.57
[1], x2 = 0.4684	–	1614.73
[1], x2 = 0.5278	–	1558.51
[1], x2 = 0.591	–	1495.15
[1], x2 = 0.6438	–	1439.24
[1], x2 = 0.7014	–	1374.75
[1], x2 = 0.7953	–	1261.18
[1], x2 = 0.8394	–	1203.31
[1], x2 = 0.8849	–	1141.17
[1], x2 = 0.9258	–	1082.23
[2], x2 = 0.0766	0.0726	–
[2], x2 = 0.1698	0.136	–
[2], x2 = 0.2646	0.178	–
[2], x2 = 0.3543	0.204	–
[2], x2 = 0.4503	0.219	–
[2], x2 = 0.5147	0.221	–
[2], x2 = 0.5752	0.216	–
[2], x2 = 0.6318	0.206	–
[2], x2 = 0.6814	0.192	–
[2], x2 = 0.7238	0.176	–
[2], x2 = 0.7605	0.159	–
[2], x2 = 0.8277	0.123	–
[2], x2 = 0.8783	0.0928	–
[2], x2 = 0.9299	0.0593	–

BrCCCCBr [1,4-dibromobutane] + COC=O
Details	excess molar enthalpy [kcal/mol]	mass density [kg/m3]
[1], x2 = 0.0901	–	1776.76
[1], x2 = 0.1948	–	1721.83
[1], x2 = 0.283	–	1670.26
[1], x2 = 0.3632	–	1619.15
[1], x2 = 0.4351	–	1569.44
[1], x2 = 0.5042	–	1517.68
[1], x2 = 0.5678	–	1466.2
[1], x2 = 0.6267	–	1414.75
[1], x2 = 0.6804	–	1364.36
[1], x2 = 0.7742	–	1267.13
[1], x2 = 0.8172	–	1217.73
[1], x2 = 0.8611	–	1164.21
[1], x2 = 0.8985	–	1115.55
[1], x2 = 0.937	–	1062.14
[1], x2 = 0.9687	–	1015.8
[2], x2 = 0.1163	0.0944	–
[2], x2 = 0.2218	0.152	–
[2], x2 = 0.3327	0.205	–
[2], x2 = 0.4395	0.235	–
[2], x2 = 0.518	0.245	–
[2], x2 = 0.581	0.243	–
[2], x2 = 0.5984	0.241	–
[2], x2 = 0.6591	0.226	–
[2], x2 = 0.7346	0.196	–
[2], x2 = 0.8107	0.155	–
[2], x2 = 0.8851	0.104	–
[2], x2 = 0.9503	0.0502	–

BrCCBr [1,2-dibromoethane] + CCCCC(=O)OC
Details	excess molar enthalpy [kcal/mol]	mass density [kg/m3]
[1], x2 = 0.0413	–	2086.33
[1], x2 = 0.0834	–	2009.4
[1], x2 = 0.1257	–	1934.54
[1], x2 = 0.1717	–	1857.45
[1], x2 = 0.2221	–	1776.23
[1], x2 = 0.2644	–	1711.22
[1], x2 = 0.3124	–	1640.62
[1], x2 = 0.3717	–	1557.38
[1], x2 = 0.4812	–	1414.72
[1], x2 = 0.5471	–	1335.17
[1], x2 = 0.6142	–	1258.34
[1], x2 = 0.6822	–	1184.61
[1], x2 = 0.755	–	1109.85
[1], x2 = 0.833	–	1033.97
[1], x2 = 0.9091	–	963.97
[2], x2 = 0.0457	0.00222	–
[2], x2 = 0.1054	0.00361	–
[2], x2 = 0.1756	0.00289	–
[2], x2 = 0.2495	-0.000765	–
[2], x2 = 0.3112	-0.0059	–
[2], x2 = 0.3523	-0.0102	–
[2], x2 = 0.3893	-0.0141	–
[2], x2 = 0.4631	-0.0184	–
[2], x2 = 0.5105	-0.0206	–
[2], x2 = 0.5845	-0.0217	–
[2], x2 = 0.6874	-0.0198	–
[2], x2 = 0.7978	-0.0149	–
[2], x2 = 0.9098	-0.00805	–
